Measured values reported in patent US8022206B2 (OSI Pharmaceuticals, LLC, priority 2008, dated 2011).

Key:
MET (human) = MET (human) (Homo sapiens, UniProt P08581); assay: MET (human) AlphaScreen kinase assay, Km of ATP; assay type: biochemical; conditions: AlphaScreen, Km of ATP; read-out: Met biochemical IC50
Summary of the method: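 Human MET at lot-optimised concentration in 50 mM Tris pH 7.4 buffer with 1 mM DTT, compound at 1% DMSO final; enzyme starts the reaction, 60 min at RT.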

RON (human) = RON (human) (Homo sapiens, UniProt Q04912); assay: RON (human) AlphaScreen kinase assay, Km of ATP; assay type: biochemical; conditions: AlphaScreen, Km of ATP; read-out: RON biochemical IC50
Chain of RON (human) (Q04912 25-1400): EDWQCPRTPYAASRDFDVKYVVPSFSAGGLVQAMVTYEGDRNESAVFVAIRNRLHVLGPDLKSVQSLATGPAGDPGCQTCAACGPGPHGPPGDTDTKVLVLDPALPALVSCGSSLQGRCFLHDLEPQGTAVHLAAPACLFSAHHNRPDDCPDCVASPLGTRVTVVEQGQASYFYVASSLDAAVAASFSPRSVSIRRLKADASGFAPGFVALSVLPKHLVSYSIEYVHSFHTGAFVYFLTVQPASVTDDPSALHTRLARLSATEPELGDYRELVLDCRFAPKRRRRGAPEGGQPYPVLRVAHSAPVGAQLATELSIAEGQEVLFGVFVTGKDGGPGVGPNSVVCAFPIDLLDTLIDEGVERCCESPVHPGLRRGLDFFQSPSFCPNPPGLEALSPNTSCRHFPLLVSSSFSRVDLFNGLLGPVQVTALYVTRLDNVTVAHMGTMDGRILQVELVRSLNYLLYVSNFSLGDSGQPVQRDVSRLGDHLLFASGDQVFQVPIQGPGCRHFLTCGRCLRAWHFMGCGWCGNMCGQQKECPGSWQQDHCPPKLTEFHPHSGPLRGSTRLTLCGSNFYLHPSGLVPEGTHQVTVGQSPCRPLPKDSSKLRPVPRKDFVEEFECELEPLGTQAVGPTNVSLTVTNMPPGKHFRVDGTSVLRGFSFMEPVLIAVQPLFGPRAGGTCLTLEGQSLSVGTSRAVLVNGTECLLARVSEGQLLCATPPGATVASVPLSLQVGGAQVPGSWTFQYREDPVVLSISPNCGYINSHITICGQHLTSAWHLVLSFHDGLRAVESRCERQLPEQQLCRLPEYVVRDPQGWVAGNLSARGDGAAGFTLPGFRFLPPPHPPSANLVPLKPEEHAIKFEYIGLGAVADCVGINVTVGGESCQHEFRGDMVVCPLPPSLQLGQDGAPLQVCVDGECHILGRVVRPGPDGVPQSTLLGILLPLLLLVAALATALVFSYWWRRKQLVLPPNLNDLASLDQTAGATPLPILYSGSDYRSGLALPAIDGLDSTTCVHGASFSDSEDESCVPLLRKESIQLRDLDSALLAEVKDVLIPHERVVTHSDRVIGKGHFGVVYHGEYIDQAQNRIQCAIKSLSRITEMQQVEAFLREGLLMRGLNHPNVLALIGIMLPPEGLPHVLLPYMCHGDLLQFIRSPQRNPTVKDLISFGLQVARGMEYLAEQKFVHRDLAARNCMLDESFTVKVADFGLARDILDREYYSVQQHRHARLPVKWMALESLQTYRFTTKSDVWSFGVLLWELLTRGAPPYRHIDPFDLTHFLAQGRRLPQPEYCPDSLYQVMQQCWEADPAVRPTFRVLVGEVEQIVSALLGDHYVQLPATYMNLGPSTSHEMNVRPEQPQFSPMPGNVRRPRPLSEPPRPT
Summary of the method: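 Detection used PT66 AlphaScreen beads added in Tris pH 7.5/NaCl/EDTA/BSA buffer, read after 1 h incubation. Vehicle-only DMSO wells served as controls.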

Chain of MET (human) (P08581 25-1390): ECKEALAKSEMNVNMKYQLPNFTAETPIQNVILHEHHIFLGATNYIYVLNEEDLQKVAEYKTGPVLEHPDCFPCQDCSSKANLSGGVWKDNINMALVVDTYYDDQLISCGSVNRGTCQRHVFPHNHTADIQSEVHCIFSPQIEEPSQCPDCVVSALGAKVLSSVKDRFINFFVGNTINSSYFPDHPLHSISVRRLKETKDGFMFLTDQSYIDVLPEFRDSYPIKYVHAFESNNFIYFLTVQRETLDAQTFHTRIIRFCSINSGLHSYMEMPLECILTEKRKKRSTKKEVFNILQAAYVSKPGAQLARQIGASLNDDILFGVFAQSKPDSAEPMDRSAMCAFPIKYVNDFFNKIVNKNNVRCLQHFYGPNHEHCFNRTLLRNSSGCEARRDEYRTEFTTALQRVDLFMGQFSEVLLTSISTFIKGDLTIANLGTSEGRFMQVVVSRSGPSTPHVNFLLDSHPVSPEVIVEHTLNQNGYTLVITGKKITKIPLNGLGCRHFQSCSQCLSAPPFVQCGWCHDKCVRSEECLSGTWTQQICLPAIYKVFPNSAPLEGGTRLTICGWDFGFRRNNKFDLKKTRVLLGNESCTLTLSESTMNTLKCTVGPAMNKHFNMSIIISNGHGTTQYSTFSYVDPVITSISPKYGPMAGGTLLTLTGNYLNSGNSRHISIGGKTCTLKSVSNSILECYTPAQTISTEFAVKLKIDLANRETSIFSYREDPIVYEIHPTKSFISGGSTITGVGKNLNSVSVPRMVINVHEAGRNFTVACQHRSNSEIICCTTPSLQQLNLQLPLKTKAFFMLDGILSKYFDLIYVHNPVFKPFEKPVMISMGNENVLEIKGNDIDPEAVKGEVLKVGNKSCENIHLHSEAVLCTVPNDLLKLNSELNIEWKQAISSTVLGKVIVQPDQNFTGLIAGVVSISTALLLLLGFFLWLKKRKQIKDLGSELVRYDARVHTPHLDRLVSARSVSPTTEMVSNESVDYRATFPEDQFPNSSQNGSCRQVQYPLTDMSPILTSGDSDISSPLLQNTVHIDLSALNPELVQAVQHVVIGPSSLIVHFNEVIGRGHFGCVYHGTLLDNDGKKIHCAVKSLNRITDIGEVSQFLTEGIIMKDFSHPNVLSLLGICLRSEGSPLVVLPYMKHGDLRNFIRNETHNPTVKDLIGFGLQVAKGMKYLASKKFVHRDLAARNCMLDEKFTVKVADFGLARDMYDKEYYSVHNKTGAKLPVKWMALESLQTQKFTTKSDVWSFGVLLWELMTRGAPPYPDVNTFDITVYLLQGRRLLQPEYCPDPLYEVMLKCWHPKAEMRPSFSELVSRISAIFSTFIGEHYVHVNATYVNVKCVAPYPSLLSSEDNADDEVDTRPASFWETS

| Structure (SMILES) | IC50 (MET (human)) | IC50 (RON (human)) |
| --- | --- | --- |
| C[C@@H](Oc1c(N)ncc2c(C3=CCN(C(=O)[C@H]4CCCN4)CC3)coc12)c1c(Cl)ccc(F)c1Cl [Example 242, (4-{6-Amino-7-[(R)-1-(2,6-dichloro-3-fluorophenyl)ethoxy]-furo[3,2-c]pyridin-3-yl}-3,6-dihydro-2H-pyridin-1-yl)-(R)-pyrrolidin-2-ylmethanone] | < 500 nM | < 500 nM |
| CCNC(=O)c1csc(-c2coc3c(O[C@H](C)c4c(Cl)ccc(F)c4Cl)c(N)ncc23)c1 [Example 329, 5-{6-Amino-7-[(R)-1-(2,6-dichloro-3-fluorophenyl)ethoxy]furo[3,2-c]pyridin-3-yl}-thiophene-3-carboxylic acid Ethylamide] | 500 to 5000 nM | 5000 to 20000 nM |
| CC(Cc1c(F)cccc1F)Oc1c(N)ncc2c(-c3cnn(C4CCNCC4)c3)coc12 (centres unmarked) [Example 418, 7-[2-(2,6-Difluorophenyl)-1-methylethoxy]-3-(1-piperidin-4-yl-1H-pyrazol-4-yl)furo[3,2-c]pyridin-6-ylamine] | < 500 nM | 500 to 5000 nM |
| C[C@@H](Oc1c(N)ncc2c(-c3ccc(C(=O)N4CCC(O)C4)cc3)coc12)c1c(Cl)ccc(F)c1Cl (some centres unmarked) [Example 299] | 500 to 5000 nM | 500 to 5000 nM |
| C[C@@H](Oc1c(N)ncc2c(C3=CCN(C(=O)Nc4ccccc4F)CC3)coc12)c1c(Cl)ccc(F)c1Cl [Example 150, 4-{6-Amino-7-[(1R)-1-(2,6-dichloro-3-fluorophenyl)ethoxy]furo[3,2-c]pyridin-3-yl}-N-(2-fluorophenyl)-3,6-dihydropyridine-1(2H)-carboxamide] | 500 to 5000 nM | 500 to 5000 nM |
| CN/C(=N/C#N)N1CC=C(c2coc3c(O[C@H](C)c4c(Cl)ccc(F)c4Cl)c(N)ncc23)CC1 [Example 198, 4-{6-Amino-7-[(R)-1-(2,6-dichloro-3-fluorophenyl)ethoxy]-furo[3,2-c]pyridin-3-yl}-N-cyano-N′-methyl-3,6-dihydro-2H-pyridine-1-carboxamidine] | 500 to 5000 nM | 500 to 5000 nM |
| C[C@@H](Oc1c(N)ncc2c(C3=CCN(C(=O)[C@@H](N)c4ccccc4)CC3)coc12)c1c(Cl)ccc(F)c1Cl [Example 261, (2S)-2-Amino-1-[4-{6-amino-7-[(1R)-1-(2,6-dichloro-3-fluoro-phenyl)ethoxy]furo[3,2-c]pyridin-3-yl}-3,6-dihydropyridin-1(2H)-yl]-2-phenylethanone] | < 500 nM | 500 to 5000 nM |
| C[C@@H](Oc1c(N)ncc2c(-c3cc(C(=O)O)cs3)coc12)c1c(Cl)ccc(F)c1Cl [Example 325, 5-{6-Amino-7-[(R)-1-(2,6-dichloro-3-fluorophenyl)ethoxy]furo[3,2-c]pyridin-3-yl}thiophene-3-carboxylic acid] | 5000 to 20000 nM | 5000 to 20000 nM |
| C[C@@H](Oc1c(N)ncc2c(C(=O)NCCCN(C)C)coc12)c1c(Cl)ccc(F)c1Cl [Example 189, 6-Amino-7-[(R)-1-(2,6-dichloro-3-fluorophenyl)ethoxy]furo[3,2-c]pyridine-3-carboxylic acid (3-dimethylaminopropyl)amide] | < 500 nM | 500 to 5000 nM |
| CC(Oc1c(N)ncc2c(-c3cnn(C4CCNCC4)c3)coc12)c1ccc(OC(F)(F)F)cc1 (centres unmarked) [Example 355, 3-(1-Piperidin-4-yl-1H-pyrazol-4-yl)-7-[1-(4-trifluoromethoxy-phenyl)ethoxy]furo[3,2-c]pyridin-6-ylamine] | 500 to 5000 nM | 500 to 5000 nM |
| CC(Cc1cccc(F)c1)Oc1c(N)ncc2c(-c3cnn(C4CCNCC4)c3)coc12 (centres unmarked) [Example 424, 7-[2-(3-Fluorophenyl)-1-methylethoxy]-3-(1-piperidin-4-yl-1H-pyrazol-4-yl)furo[3,2-c]pyridin-6-ylamine] | < 500 nM | 500 to 5000 nM |
| CNC(=O)CN1CC=C(c2coc3c(O[C@H](C)c4c(Cl)ccc(F)c4Cl)c(N)ncc23)CC1 [Example 201, 2-(4-{6-Amino-7-[(R)-1-(2,6-dichloro-3-fluorophenyl)ethoxy]-furo[3,2-c]pyridin-3-yl}-3,6-dihydro-2H-pyridin-1-yl)-N-methylacetamide] | < 500 nM | 500 to 5000 nM |
| C[C@@H](Oc1c(N)ncc2c(-c3cnn(C4CCNCC4)c3)c(C#CCCO)oc12)c1c(Cl)ccc(F)c1Cl [Example 172, 4-[6-Amino-7-[(R)-1-(2,6-dichloro-3-fluorophenyl)ethoxy]-3-(1-piperidin-4-yl-1H-pyrazol-4-yl)-furo[3,2-c]pyridin-2-yl]-but-3-yn-1-ol] | < 500 nM | < 500 nM |
| C[C@@H](Oc1c(N)ncc2c(C3=CCN(CC(=O)N(C)C)CC3)coc12)c1c(Cl)ccc(F)c1Cl [Example 200, 2-(4-{6-Amino-7-[(R)-1-(2,6-dichloro-3-fluorophenyl)ethoxy]-furo[3,2-c]pyridin-3-yl}-3,6-dihydro-2H-pyridin-1-yl)-N,N-dimethylacetamide] | < 500 nM | 500 to 5000 nM |
| C[C@@H](Oc1c(N)ncc2c(-c3ccc(C(=O)NCCN(C)C)cc3)coc12)c1c(Cl)ccc(F)c1Cl [Example 71, 4-{6-Amino-7-[(R)-1-(2,6-dichloro-3-fluorophenyl)ethoxy]-furo[3,2-c]pyridin-3-yl}-N-(2-dimethylaminoethyl)benzamide] | < 500 nM | < 500 nM |
| COc1ccc(-c2coc3c(O[C@H](C)c4c(Cl)ccc(F)c4Cl)c(N)ncc23)cc1 [Example 69, 7-[(R)-1-(2,6-Dichloro-3-fluorophenyl)ethoxy]-3-(4-methoxyphenyl)-furo[3,2-c]pyridin-6-ylamine] | 500 to 5000 nM | 500 to 5000 nM |
| CC(Oc1c(N)ncc2c(-c3cnn(C4CCNCC4)c3)coc12)c1cccc(Br)c1 (centres unmarked) [Example 387, 7-[1-(3-Bromophenyl)ethoxy]-3-(1-piperidin-4-yl-1H-pyrazol-4-yl)furo[3,2-c]pyridin-6-ylamine] | < 500 nM | 500 to 5000 nM |
| C[C@@H](Oc1c(N)ncc2c(C3=CCN(C(=O)C(C)(C)O)CC3)coc12)c1c(Cl)ccc(F)c1Cl [Example 228, 1-(4-{6-Amino-7-[(R)-1-(2,6-dichloro-3-fluorophenyl)ethoxy]-furo[3,2-c]pyridin-3-yl}-3,6-dihydro-2H-pyridin-1-yl)-2-hydroxy-2-methylpropan-β-one] | 500 to 5000 nM | 500 to 5000 nM |
| CC(Oc1c(N)ncc2c(-c3cnn(C4CCNCC4)c3)coc12)c1cccc(-c2cnn(C)c2)c1 (centres unmarked) [Example 448, 7-{1-[3-(1-Methyl-1H-pyrazol-4-yl)phenyl]ethoxy}-3-(1-piperidin-4-yl-1H-pyrazol-4-yl)furo[3,2-c]pyridin-6-ylamine] | 500 to 5000 nM | 500 to 5000 nM |
| C[C@@H](Oc1c(N)ncc2c(C3=CCN(C(=O)[C@@H]4C[C@@H](F)CN4)CC3)coc12)c1c(Cl)ccc(F)c1Cl [Example 235, (4-{6-Amino-7-[(R)-1-(2,6-dichloro-3-fluorophenyl)ethoxy]-furo[3,2-c]pyridin-3-yl}-3,6-dihydro-2H-pyridin-1-yl)-((2S,4R)-4-fluoropyrrolidin-2-yl)-methanone] | < 500 nM | < 500 nM |
| C[C@@H](Oc1c(N)ncc2c(C3=CCS(=O)(=O)CC3)coc12)c1c(Cl)ccc(F)c1Cl [Example 140, 7-[(1R)-1-(2,6-Dichloro-3-fluorophenyl)ethoxy]-3-(1,1-dioxido-3,6-dihydro-2H-thiopyran-4-yl)furo[3,2-c]pyridin-6-amine] | < 500 nM | 500 to 5000 nM |
| C[C@@H](Oc1c(N)ncc2c(C3=CCN(C(=O)N4CCOCC4)CC3)coc12)c1c(Cl)ccc(F)c1Cl [Example 31, (4-{6-Amino-7-[(R)-1-(2,6-dichloro-3-fluorophenyl)-ethoxy]-furo[3,2-c]pyridin-3-yl}-3,6-dihydro-2H-pyridin-1-yl)-morpholin-4-ylmethanone] | 500 to 5000 nM | 500 to 5000 nM |
| C[C@@H](Oc1c(N)ncc2c(-c3ccc(CN4CCN(C)CC4)s3)coc12)c1c(Cl)ccc(F)c1Cl [Example 218, 7-[(R)-1-(2,6-Dichloro-3-fluorophenyl)ethoxy]-3-[5-(4-methylpiperazin-1-ylmethyl)-thiophen-2-yl]furo[3,2-c]pyridin-6-ylamine] | < 500 nM | < 500 nM |
| C[C@@H](Oc1c(N)ncc2c(C3=CCN(C(=O)[C@H]4CCCCN4)CC3)coc12)c1c(Cl)ccc(F)c1Cl [Example 239, (4-{6-Amino-7-[(R)-1-(2,6-dichloro-3-fluorophenyl)ethoxy]-furo[3,2-c]pyridin-3-yl}-3,6-dihydro-2H-pyridin-1-yl)-(R)-piperidin-2-ylmethanone] | < 500 nM | < 500 nM |
| C[C@@H]1CN(Cc2cc(-c3coc4c(O[C@H](C)c5c(Cl)ccc(F)c5Cl)c(N)ncc34)cs2)C[C@H](C)N1 [Example 305, 7-[(R)-1-(2,6-Dichloro-3-fluorophenyl)ethoxy]-3-[5-(cis-3,5-dimethylpiperazin-1-ylmethyl)thiophen-3-yl]-furo[3,2-c]pyridin-6-ylamine] | < 500 nM | < 500 nM |
| CC(Cc1ccc(Cl)c(Cl)c1)Oc1c(N)ncc2c(-c3cnn(C4CCNCC4)c3)coc12 (centres unmarked) [Example 428, 7-[2-(3,4-Dichlorophenyl)-1-methylethoxy]-3-(1-piperidin-4-yl-1H-pyrazol-4-yl)furo[3,2-c]pyridin-6-ylamine] | 500 to 5000 nM | < 500 nM |
| C[C@@H](Oc1c(N)ncc2c(-c3cnc(N(C)C)nc3)coc12)c1c(Cl)ccc(F)c1Cl [Example 124, 7-[(R)-1-(2,6-Dichloro-3-fluorophenyl)ethoxy]-3-(2-dimethylaminopyrimidin-5-yl)furo[3,2-c]pyridin-6-ylamine] | 500 to 5000 nM | 500 to 5000 nM |
| Cc1cscc1-c1coc2c(O[C@H](C)c3c(Cl)ccc(F)c3Cl)c(N)ncc12 [Example 111, 7-[(R)-1-(2,6-Dichloro-3-fluorophenyl)ethoxy]-3-(4-methylthiophen-3-yl)furo[3,2-c]pyridin-6-ylamine] | 500 to 5000 nM | 500 to 5000 nM |
